# Values quoted from earlier work, collected in patent US8288391B2, “Pyrazinoylguanidine compounds for use as taste modulators” (Parion Sciences, Inc., priority 2007, dated 2012).
# Biological target: T1, ENaC (Rattus norvegicus, UniProt P37089+P37090+P37091)
# T1 construct: receptor cells in taste buds and some surrounding non-taste epithelia) through apical membrane ENaC; host or cells: rat in vivo: taste nerve (chorda tympani) response, with endogenous channel of lingual taste receptor cells
# T1 sequence (P37089 1-698): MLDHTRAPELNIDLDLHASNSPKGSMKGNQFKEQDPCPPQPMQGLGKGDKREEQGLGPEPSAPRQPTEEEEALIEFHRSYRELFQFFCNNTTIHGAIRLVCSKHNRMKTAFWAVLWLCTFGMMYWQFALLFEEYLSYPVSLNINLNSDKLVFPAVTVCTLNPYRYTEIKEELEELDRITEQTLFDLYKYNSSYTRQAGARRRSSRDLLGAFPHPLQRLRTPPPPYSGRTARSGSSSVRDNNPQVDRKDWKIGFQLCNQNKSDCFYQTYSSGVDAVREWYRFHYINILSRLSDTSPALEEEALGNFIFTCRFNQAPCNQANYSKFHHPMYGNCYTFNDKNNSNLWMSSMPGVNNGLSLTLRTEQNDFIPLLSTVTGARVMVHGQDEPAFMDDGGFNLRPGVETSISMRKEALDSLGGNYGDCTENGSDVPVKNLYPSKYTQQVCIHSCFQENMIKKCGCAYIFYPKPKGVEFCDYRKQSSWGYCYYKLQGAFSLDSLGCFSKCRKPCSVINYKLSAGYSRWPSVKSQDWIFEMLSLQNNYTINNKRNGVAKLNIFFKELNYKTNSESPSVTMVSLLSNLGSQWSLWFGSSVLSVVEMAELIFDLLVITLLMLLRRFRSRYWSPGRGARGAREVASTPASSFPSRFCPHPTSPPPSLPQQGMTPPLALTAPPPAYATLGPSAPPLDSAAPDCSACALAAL
# T1 sequence (P37090 1-638): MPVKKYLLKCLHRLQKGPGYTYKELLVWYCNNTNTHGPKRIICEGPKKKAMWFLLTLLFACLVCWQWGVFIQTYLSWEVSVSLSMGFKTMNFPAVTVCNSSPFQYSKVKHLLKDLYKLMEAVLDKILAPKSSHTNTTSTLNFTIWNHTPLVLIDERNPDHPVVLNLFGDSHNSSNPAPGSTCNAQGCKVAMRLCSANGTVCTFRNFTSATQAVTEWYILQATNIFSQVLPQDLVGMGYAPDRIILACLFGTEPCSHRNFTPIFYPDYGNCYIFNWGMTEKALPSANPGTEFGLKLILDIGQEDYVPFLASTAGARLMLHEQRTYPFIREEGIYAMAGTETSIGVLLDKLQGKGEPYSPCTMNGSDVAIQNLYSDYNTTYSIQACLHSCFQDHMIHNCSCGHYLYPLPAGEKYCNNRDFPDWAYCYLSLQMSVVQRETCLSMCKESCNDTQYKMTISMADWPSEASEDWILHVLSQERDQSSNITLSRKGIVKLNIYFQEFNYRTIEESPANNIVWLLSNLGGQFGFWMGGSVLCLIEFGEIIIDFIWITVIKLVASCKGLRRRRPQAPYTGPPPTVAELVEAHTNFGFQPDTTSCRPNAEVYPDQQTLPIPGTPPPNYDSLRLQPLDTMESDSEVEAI
# T1 sequence (P37091 1-650): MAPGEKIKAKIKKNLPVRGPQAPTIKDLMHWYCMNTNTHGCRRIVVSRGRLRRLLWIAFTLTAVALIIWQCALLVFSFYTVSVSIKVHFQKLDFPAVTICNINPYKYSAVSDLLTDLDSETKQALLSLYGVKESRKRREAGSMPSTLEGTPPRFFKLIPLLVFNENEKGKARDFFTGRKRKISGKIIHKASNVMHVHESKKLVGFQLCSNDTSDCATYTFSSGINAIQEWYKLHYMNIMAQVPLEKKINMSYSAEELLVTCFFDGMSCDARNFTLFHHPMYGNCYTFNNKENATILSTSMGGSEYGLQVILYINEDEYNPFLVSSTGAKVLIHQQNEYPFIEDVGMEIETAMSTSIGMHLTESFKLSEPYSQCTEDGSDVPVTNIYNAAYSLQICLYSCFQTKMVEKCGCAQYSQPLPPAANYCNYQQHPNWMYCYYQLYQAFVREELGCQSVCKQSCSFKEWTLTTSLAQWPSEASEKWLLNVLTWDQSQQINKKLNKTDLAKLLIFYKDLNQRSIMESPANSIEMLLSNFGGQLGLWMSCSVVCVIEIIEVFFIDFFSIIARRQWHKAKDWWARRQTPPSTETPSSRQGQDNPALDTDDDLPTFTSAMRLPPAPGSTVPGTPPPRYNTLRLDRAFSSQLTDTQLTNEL
# Conditions: rats; 100 mM NaCl; share of total taste response
smiles,measurement,value
N=C(N)NC(=O)c1nc(Cl)c(N)nc1N [amiloride],amiloride-sensitive part of the total response to NaCl,75%-80%
